Tests used:
p38-alpha kinase = p38-alpha kinase (Homo sapiens, UniProt Q16539); conditions: time-dependent if IC50 values decrease with reaction time (more than two-fold in four hours)
Protocol: This dilution can be done automatically on a Tecan (or similar) robotic workstation or performed manually. • 3. […] This step can be performed automatically on a Tecan (or similar) robotic workstation or performed manually. • 4. Incubate at 30° C. or room temp for 2 h, depending on protein stability. • 5. Read at emission wavelength 420 nm upon excitation at 340 nm.

[1] = biological target: T1, unphosphorylated p38-alpha kinase (Homo sapiens, UniProt Q16539, DEL261-261); experiment: Thermal denaturation of unphosphorylated p38-alpha kinase; format: binding; conditions: for ΔTm (° C.) relative to unphosphorylated apo p38: […] p38-alpha kinase, 15 μM small molecule
T1 construct: 48 (6×His-TEV tag, full length); 6×His-TEV tag (N); purchased Decode Genetics, Inc; host or cells: E. coli
Description: (§1) Denaturation was monitored by measuring the absolute absorbance of the solutions at an appropriate wavelength (typically 230 nm and 240 nm) as a function of temperature. As the protein became denatured, additional UV absorbing functional groups became exposed causing an increase in absorbance at the melting temperature. […] The thermal data were collected using Agilent spectrophotometers and ChemStation UV/Vis Thermal Denaturation software.
The final protein and buffer solution was mixed gently using a pipetter to minimize denaturing due to over aggressive mixing. The final solution was transferred to a 50 μL cuvette for analysis.
(§2) The final solution was transferred to a 50 μL cuvette for analysis.
(§3) A first derivative calculation with data smoothing was applied to the resulting data to report the point of inflection as the melting temperature.

[2] = biological target: T2, doubly phosphorylated p38-alpha kinase (Homo sapiens, UniProt Q16539); experiment: Thermal denaturation of doubly phosphorylated p38-alpha kinase; format: binding; conditions: for ΔTm (° C.) relative to doubly phosphorylated p38: 0.5 μM p38-alpha kinase, 20 μM small molecule
T2 construct: 6xHis ([…], seen only in the listing) (C); purchased Roche Applied Diagnostics
Protocol: as §1
The final concentration was 0.5 μM p38-alpha kinase and 20 μM small molecule. The final protein and buffer solution was mixed gently using a pipetter to minimize denaturing due to over aggressive mixing. The final solution was transferred to a 50 μL cuvette for analysis.
The protein and buffer solution was mixed gently using a pipetter to minimize denaturing due to over aggressive mixing. The final solution was transferred to a 50 μL cuvette for analysis.
as §3

[3] = biological target: T1, unphosphorylated p38-alpha kinase; experiment: Fluorescence affinity assay, unphosphorylated p38-alpha kinase; format: binding; conditions: for Ratio IC50s: doubly phosphorylated vs unphosphorylated p38-alpha, >1.0 = preference for unphosphorylated form; for IC50: ~24 nM enzyme, 1.0 uM SKF-86002, read-out: FP IC50 U-p38-alpha
Description: (§4) This fluorescence affinity assay is utilized in an affinity-based screen to identify small molecules which bind into switch control pockets of protein kinases. Binding of small molecule switch inhibitors displaces the switch control ligand phenylalanine of the DFG motif into an orientation which sterically blocks the ATP pocket. Such inhibitor-induced blockade of the ATP pocket is registered as an inhibition of binding of the fluoroprobe into the ATP pocket.
(§5) • 1. p38-alpha kinase • a. […] Polarstar Optima plate reader (BMG)
(§6) • 1. […] This dilution can be done automatically on a Tecan (or similar) robotic workstation or performed manually. • 3. Mix Solution A with the diluted compound solutions following Step 3 of Table 22. This step can be performed automatically on a Tecan (or similar) robotic workstation or performed manually. • 4. Incubate at 30° C. or room temp for 2 h, depending on protein stability. • 5. Read at emission wavelength 420 nm upon excitation at 340 nm.
The reaction was initiated by addition of the enzyme. […] By comparison of RFU (relative fluorescence units) values with that of a control (in the absence of small molecule modulators), the percentage of inhibition at each concentration of the small molecules was calculated. IC50 values for the small molecule modulators were calculated from the % inhibition values obtained at a range of concentrations of the small molecule modulators using Prism (available from GraphPad, Inc.). When time-dependent inhibition was assessed, the plate was read at multiple reaction times such as 0.5, 1, 2, 3, 4 and 6 hours. The IC50 values were calculated at each time point. An inhibition was assigned as time-dependent if the IC50 values decrease with the reaction time (more than two-fold in four hours).
(§7) A ratio greater than 1.0 indicates a preference for inhibiting the unphosphorylated form of p38-alpha kinase relative to the doubly phosphorylated form. A ratio less than 1.0 indicates a preference for inhibiting the doubly phosphorylated form of p38-alpha kinase relative to the unphosphorylated form.

[4] = biological target: T2, doubly phosphorylated p38-alpha kinase; experiment: Fluorescence affinity assay, doubly phosphorylated p38-alpha kinase; format: binding; conditions: ~24 nM enzyme; 1.0 uM SKF-86002; read-out: FP IC50 P-p38-alpha
Description: as §4, §5
as §6, with “nm. […]” for “nm.”
as §7

V599E Braf kinase = biological target: T3, V599E Braf kinase (Homo sapiens, UniProt P15056, V600E); experiment: Thermal denaturation of oncogenic V599E Braf kinase; format: binding; conditions: 1.4 μM V599E Braf kinase, 20 μM small molecule; read-out: ΔTm (° C.) relative to unphosphorylated B-Raf(V599E)
T3 construct: 6×His-tag (N); made in house; host or cells: Sf9 insect cells (baculovirus)
Protocol: as §1, §2, §2, §3

Abl kinase = experiment: Thermal denaturation of Abl kinase; format: binding, human; conditions: 1 μM Abl kinase, 20 μM small molecule
Protocol: as §1
5 μL of 40 μM Abl kinase was mixed with 195 μL of the small molecule/buffer solution. The final concentration was 1 μM Abl kinase and 20 μM small molecule. The final protein and buffer solution was mixed gently using a pipetter to minimize denaturing due to over aggressive mixing. The final solution was transferred to a 50 μL cuvette for analysis.
Test solutions containing only the Abl kinase were prepared as follows: 5 μL of 40 μM Abl kinase was mixed with 195 μL Buffer to give a concentration of 1 μM Abl kinase in Buffer. The protein and buffer solution was mixed gently using a pipetter to minimize denaturing due to over aggressive mixing. The final solution was transferred to a 50 μL cuvette for analysis.
as §3

T3 sequence (P15056 with tags, fused parts or gaps V600E): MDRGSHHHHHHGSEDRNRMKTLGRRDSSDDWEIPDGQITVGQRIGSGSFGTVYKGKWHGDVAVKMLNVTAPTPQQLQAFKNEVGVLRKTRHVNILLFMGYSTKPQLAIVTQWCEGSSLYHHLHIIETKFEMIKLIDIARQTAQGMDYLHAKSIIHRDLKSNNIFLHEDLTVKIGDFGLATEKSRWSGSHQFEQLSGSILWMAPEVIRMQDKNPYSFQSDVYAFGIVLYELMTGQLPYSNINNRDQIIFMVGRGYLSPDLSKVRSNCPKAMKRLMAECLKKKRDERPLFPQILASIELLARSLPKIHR
T2 sequence (Q16539 with tags, fused parts or gaps): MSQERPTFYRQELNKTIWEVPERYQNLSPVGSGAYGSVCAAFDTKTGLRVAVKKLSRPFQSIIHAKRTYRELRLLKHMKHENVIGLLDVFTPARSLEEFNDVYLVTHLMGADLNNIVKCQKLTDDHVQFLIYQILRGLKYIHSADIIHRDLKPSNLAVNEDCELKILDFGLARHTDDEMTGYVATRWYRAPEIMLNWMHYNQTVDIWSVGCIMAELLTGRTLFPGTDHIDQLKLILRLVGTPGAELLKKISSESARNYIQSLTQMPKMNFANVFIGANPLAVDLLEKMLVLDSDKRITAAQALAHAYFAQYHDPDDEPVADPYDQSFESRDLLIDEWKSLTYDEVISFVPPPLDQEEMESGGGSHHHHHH
Chain of p38-alpha kinase (Q16539 whole entry): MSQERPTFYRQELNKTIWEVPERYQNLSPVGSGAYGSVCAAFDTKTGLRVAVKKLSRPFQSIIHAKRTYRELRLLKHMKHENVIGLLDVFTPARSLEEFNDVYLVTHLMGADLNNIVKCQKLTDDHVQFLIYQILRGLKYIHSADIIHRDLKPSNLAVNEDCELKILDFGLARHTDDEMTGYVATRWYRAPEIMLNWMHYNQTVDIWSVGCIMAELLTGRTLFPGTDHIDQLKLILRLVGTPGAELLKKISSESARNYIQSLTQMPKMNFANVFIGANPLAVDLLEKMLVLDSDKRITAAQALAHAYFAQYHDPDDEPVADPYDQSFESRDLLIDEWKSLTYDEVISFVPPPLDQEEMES
T1 sequence (Q16539 with tags, fused parts or gaps DEL261-261): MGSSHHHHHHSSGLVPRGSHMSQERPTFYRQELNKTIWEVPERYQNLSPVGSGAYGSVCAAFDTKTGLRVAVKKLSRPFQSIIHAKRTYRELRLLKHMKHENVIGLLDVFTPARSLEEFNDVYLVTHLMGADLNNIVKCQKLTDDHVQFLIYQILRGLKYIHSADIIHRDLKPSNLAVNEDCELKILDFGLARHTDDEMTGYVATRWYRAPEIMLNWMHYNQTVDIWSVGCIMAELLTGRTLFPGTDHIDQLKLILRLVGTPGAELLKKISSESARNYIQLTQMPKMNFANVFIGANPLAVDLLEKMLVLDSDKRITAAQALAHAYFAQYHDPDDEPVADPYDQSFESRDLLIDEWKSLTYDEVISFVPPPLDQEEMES

Structure (SMILES)	ΔTm (° C.) relative to unphosphorylated apo p38 [1] [°C]	ΔTm (° C.) relative to doubly phosphorylated p38 [2] [°C]	Ratio IC50s [3]	IC50 [3] [nM]	IC50 [4] [nM]	other results
CC1(C(=O)O)CC2(C)CC(C)(C1)C(=O)N(Cc1cccc(-n3nc(C(C)(C)C)cc3NC(=O)Nc3cccc4ccccc34)c1)C2=O (stereo not shown) [Example 11]	–	–	–	–	–	Time-dependent (p38-alpha kinase): No
CC1(C(=O)O)CC2(C)CC(C)(C1)C(=O)N(Cc1cccc(-n3nc(C(C)(C)C)cc3NC(=O)Nc3ccc(Cl)cc3)c1)C2=O (stereo not shown) [Example 12]	–	–	–	–	–	Time-dependent (p38-alpha kinase): No
CC(C)(C)c1cc(NC(=O)Nc2cccc3ccccc23)n(-c2cccc(CC(=O)N3CCOCC3)c2)n1 [Example 21, 1-(3-tert-butyl-1-(3-(2-morpholino-2-oxoethyl)phenyl)-1H-pyrazol-5-yl)-3-(naphthalen-1-yl)urea]	–	–	–	–	–	Time-dependent (p38-alpha kinase): Yes
CC(C)(C)c1cc(NC(=O)Nc2ccc(Cl)cc2)n(-c2ccc(CO)cc2)n1 [Example 61]	8.5	5.9	0.8	24	19	–
O=C(Nc1cccc(Cl)c1Cl)Nc1cc(-c2ccccc2)nn1-c1cccc(CO)c1 [Example 63]	9.4	5.0	–	28	85	–
CC(C)(C)c1cc(NC(=O)Nc2cccc(Cl)c2Cl)n(-c2cccc(CC(N)=O)c2)n1 [Example 69]	–	–	–	–	–	Thermal denaturation assay ΔTm ([1]; unphosphorylated p38-alpha kinase): 13.10 °; Thermal denaturation assay ΔTm ([2]; phosphorylated p38-alpha kinase): 9.1 °
CC1(O)CCN(C(=O)Cc2ccc(-n3nc(C(C)(C)C)cc3NC(=O)Nc3cccc(Cl)c3Cl)cc2)CC1 [Example 70]	12.6	8.7	2.3	26	26	–
CC(C)(C)c1cc(NC(=O)Nc2cccc3ccccc23)n(-c2cccc(CO)c2)n1 [Example 71]	10.9	9.6	1.1	17	19	–
CC(C)(C)c1cc(NC(=O)Nc2cccc3ccccc23)n(-c2ccc(C(O)C(F)(F)F)cc2)n1 (stereo not shown) [Example 73]	8.9	5.9	–	–	–	–
CC(C)(C)c1cc(NC(=O)Nc2cccc3ccccc23)n(-c2cccc(C(C)(C)O)c2)n1 [Example 75]	8.2	5.6	0.7	165	119	–
CC(C)(C)c1cc(NC(=O)Nc2cccc(Cl)c2Cl)n(-c2ccc(CC(N)=O)cc2)n1 [Example 76]	13.1	9.4	–	–	26	–
NC(=O)Cc1cccc(-n2nc(-c3ccccc3)cc2NC(=O)Nc2cccc(Cl)c2Cl)c1 [Example 77]	8.0	5.3	1.1	25	57	–
NC(=O)Cc1cccc(-n2nc(-c3cscn3)cc2NC(=O)Nc2cccc(Cl)c2Cl)c1 [Example 78]	6.7	3.9	1.5	233	195	–
CNC(=O)Cc1cccc(-n2nc(C(C)(C)C)cc2NC(=O)Nc2cccc(Cl)c2Cl)c1 [Example 79]	–	–	–	–	–	ΔTm at 20 µM (V599E Braf kinase): 12 °C
CC(C)(C)c1cc(NC(=O)Nc2cccc(Cl)c2Cl)n(-c2ccc3c(c2)CN(S(C)(=O)=O)CC3)n1 [Example 80]	–	–	–	–	–	ΔTm (° C.) relative to unphosphorylated Abl (Abl kinase): 2.3 °C; ΔTm at 20 µM (V599E Braf kinase): 14.6 °C
CC(C)(C)c1cc(NC(=O)Nc2cccc(Cl)c2Cl)n(-c2ccc3c(c2)CCC(=O)N3)n1 [Example 81]	–	–	–	–	–	ΔTm at 20 µM (V599E Braf kinase): 17.3 °C
CC(C)(C)c1cc(NC(=O)Nc2cccc(Cl)c2Cl)n(-c2ccc3c(c2)CCNC3=O)n1 [Example 82]	–	–	–	–	–	ΔTm at 20 µM (V599E Braf kinase): 13.5 °C
CC(C)(C)c1cc(NC(=O)Nc2cccc3ccccc23)n(-c2cccc(C(C)(C)O)c2)n1 [Example 83]	–	–	–	–	–	ΔTm at 20 µM (V599E Braf kinase): 14.9 °C
CC(C)(C)c1cc(NC(=O)Nc2cccc(Cl)c2Cl)n(-c2ccc(CC(N)=O)cc2)n1 [Example 84]	–	–	–	–	–	ΔTm at 20 µM (V599E Braf kinase): 12.5 °C
CC(C)(C)c1cc(NC(=O)Nc2ccc(Cl)cc2)n(-c2cccc(CO)c2)n1 [Example 85]	–	–	–	–	–	ΔTm at 20 µM (V599E Braf kinase): 2.9 °C
CC(C)(C)c1cc(NC(=O)Nc2cccc(Cl)c2Cl)n(-c2cc(CNC(=O)NS(C)(=O)=O)c3ccccc3c2)n1 [Example 86]	–	–	–	–	–	ΔTm (° C.) relative to unphosphorylated Abl (Abl kinase): 4.0 °C
CC(C)(C)c1cc(NC(=O)Nc2cccc(Cl)c2Cl)n(-c2cc(CO)c3ccccc3c2)n1 [Example 87]	–	–	–	–	–	ΔTm (° C.) relative to unphosphorylated Abl (Abl kinase): 3.6 °C
CC(=O)N1CCc2ccc(-n3nc(C(C)(C)C)cc3NC(=O)Nc3cccc(Cl)c3Cl)cc2C1 [Example 88]	–	–	–	–	–	ΔTm (° C.) relative to unphosphorylated Abl (Abl kinase): 1.2 °C
CC(C)(C)c1cc(NC(=O)Nc2cccc(Cl)c2Cl)n(-c2ccc3c(c2)C(N)=NCC3)n1 [Example 89]	–	–	–	–	–	ΔTm (° C.) relative to unphosphorylated Abl (Abl kinase): 1.8 °C
CC(C)(C)c1cc(NC(=O)Nc2cccc(Cl)c2Cl)n(-c2cccc(C(=N)N)c2)n1 [Example 90]	–	–	–	–	–	ΔTm (° C.) relative to unphosphorylated Abl (Abl kinase): 1.3 °C
COc1ccc(-n2nc(C(C)(C)C)cc2NC(=O)Nc2cccc(Cl)c2Cl)cc1 [Example 91]	–	–	–	–	–	ΔTm (° C.) relative to unphosphorylated Abl (Abl kinase): 12.5 °C
CC(C)(C)c1cc(NC(=O)Nc2cccc3ccccc23)n(-c2ccc(OCC(=O)O)cc2)n1 [Example 92]	–	–	3.1	52	160	–
CC(C)(C)c1cc(NC(=O)Nc2cccc(Oc3cccnc3)c2)n(-c2cccc(CC(N)=O)c2)n1 [Example 93, 1-(1-(3-(2-amino-2-oxoethyl)phenyl)-3-tert-butyl-1H-pyrazol-5-yl)-3-(3-(pyridin-3-yloxy)phenyl)urea]	–	–	2.4	16	39	–
Cc1ccc(NC(=O)Nc2cc(C(C)(C)C)nn2-c2ccc3c(c2)CCNC3)cc1Nc1ncccn1 [Example 94, 1-(3-tert-butyl-1-(1,2,3,4-tetrahydroisoquinolin-6-yl)-1H-pyrazol-5-yl)-3-(4-methyl-3-(pyrimidin-2-ylamino)phenyl)urea]	–	–	1.9	10	19	–
CC(C)(C)c1cc(NC(=O)Nc2cccc(Cl)c2Cl)n(-c2ccc(CC(=O)N3CCS(=O)(=O)CC3)cc2)n1 [Example 96]	–	–	3.0	7	8	–

— US20080220497A1, “Modulation of protein functionalities” (priority 2003, published 2008)
